Assay results reported in patent US9345243B2, “Chemicals composition for reducing stress on plant” (Nippon Soda Co., Ltd., priority 2012, dated 2016).

system: Cucumber (breed: Sagamihanjiro); experiment: Relief effects of salt injury on cucumber (Test Example 8); settings: spray, 0.1% sodium chloride irrigation from 3 days, above ground raw weight at 20 days, ascorbyl palmitate 600 ppm, imidacloprid 50 ppm, pymetrozine 100 ppm, cyenopyrafen 150 ppm, pyraclostrobin 50 ppm, normal irrigation = 100
Experimental: Cucumber (breed: Sagamihanjiro, 2 replications) hydroponically grown up to the 1.5 leaf stage in a greenhouse was prepared.
A water dispersible granule of 30% ascorbyl palmitate and a commercially available product containing the substance (B) described in Table 14 were diluted with tap water into a concentration described in Table 14, and the diluted solution was sprayed over the nursery plats in a sufficient amount. After air dried, they were cultivated in a greenhouse with normal irrigation. Irrigation was changed to 0.1% aqueous sodium chloride solution at the elapsed time of 3 days after the spraying, and cultivated. The raw weight of an above ground part was measured at the elapsed time of 20 days after the spraying. From this, injury relief percentages were computed by the following formula.

Row | Compound | relief percents of injury (%)
1 | COC(=O)N(OC)c1ccccc1COc1ccn(-c2ccc(Cl)cc2)n1 [Pyraclostrobin] | 77
2 | CC1=NNC(=O)N(/N=C/c2cccnc2)C1 [Pymetrozine] | 53
3 | Cc1nn(C)c(/C(OC(=O)C(C)(C)C)=C(\C#N)c2ccc(C(C)(C)C)cc2)c1C [cyenopyrafen] | 51
4 | O=[N+]([O-])NC1=NCCN1Cc1ccc(Cl)nc1 [Imidacloprid] | 33
5 | CCCCCCCCCCCCCCCC(=O)OC[C@H](O)[C@H]1OC(=O)C(O)=C1O [ascorbyl palmitate] | 53

system: Tomato (breed: Momotaro); experiment: Relief effects of high temperature injury on tomato (Test Example 3); settings: spray, 40° C. daylight / 30° C. dark, 4 days, ascorbyl palmitate 600 ppm, thiophanate-methyl 467 ppm, boscalid 333 ppm, cyflufenamid 17 ppm + triflumizole 75 ppm
Experimental: Tomato (breed: Momotaro, 2 replications) grown up to the 4 leaf stage in a greenhouse was prepared.
A water dispersible granule of 30% ascorbyl palmitate and a commercially available agent containing the substance (B) as described in Table 8 were diluted with tap water into a concentration described in Table 8, and the diluted solution was sprayed over the whole nursery plants in a sufficient amount. After air dried, they were allowed to grow under cycle conditions of 16 hours under a daylight condition at 40° C. and 8 hours under a dark condition at 30° C. The degree of disorders was investigated at an elapsed time of 4 days after the spraying.
The degree of necrosis due to high temperature was evaluated by 11 levels of disorder indices from 0 (no necrosis) to 10 (withering to death). From this, the injury relief percentages were computed by the following formula.

Row | Compound | relief percents of injury (%)
6 | O=C(Nc1ccccc1-c1ccc(Cl)cc1)c1cccnc1Cl [Boscalid] | 40
7 | COC(=O)NC(=S)Nc1ccccc1NC(=S)NC(=O)OC [Thiophanate-methyl] | 40
8 | CCCCCCCCCCCCCCCC(=O)OC[C@H](O)[C@H]1OC(=O)C(O)=C1O [ascorbyl palmitate] | 40
